In US20080021044A1 (priority 2006, published 2008):

Experiment: Solubility of the compound of formula (I) as a function of time in aqueous solvents (HPLC)
Format: physicochemical
Conditions: thermodynamic from solid; for solubility at 1 h / solubility at 2 h / solubility at 4 h / solubility at 24 h / solubility at 48 h / solubility at 0.5 h: 25° C. water bath, agitated; for solubility at 0.5 h: ½ hr; for solubility at 7 days: kept at room temperature with no agitation
Protocol: The sample vials were pulled out at each time point, the pH was measured and the sample was filtered a 0.45 μm PTFE membrane filter. The filtrate was appropriately diluted with the dilution solvent and the concentration of the compound was measured using HPLC. HPLC conditions were as follows: Method: Isocratic method, 70% mobile phase A −30% mobile phase B; Column: Supelco Discovery HS-C18, 3 μm, 4.6×150mm; Mobile Phase A: 0.05% TFA in water; B: 0.05% TFA in acetonitrile; Flow rate: 1.0 mL/min; Detection: UV: Wavelength: 240 nm, bandwidth 4 nm; Reference wavelength: 450 nm, bandwidth 80 nm; Run time: 6 min; Injection volume: 10 μL.

[1] = aqueous buffer, 0.1N NaOH (pH ˜12.8)
[2] = aqueous buffer, borate buffer pH 8
[3] = aqueous buffer, borate buffer pH 10
[4] = aqueous buffer, citrate buffer pH 2
[5] = aqueous buffer, citrate buffer pH 4
[6] = aqueous buffer, citrate buffer pH 6
[7] = simulated gastric fluid, 0.1N HCl
[8] = simulated intestinal fluid (SIF), fassgf or other biorelevant, SIF (pH ˜6.75)

- solubility at 1 h [1]: 980 µg/mL
- solubility at 2 h [1]: 980 µg/mL
- solubility at 4 h [1]: 1000 µg/mL
- solubility at 24 h [1]: 1000 µg/mL
- solubility at 48 h [1]: 990 µg/mL
- solubility at 0.5 h [1]: 920 µg/mL
- solubility at 4 h [2]: 1300 µg/mL
- solubility at 24 h [2]: 1200 µg/mL
- solubility at 48 h [2]: 1200 µg/mL
- solubility at 4 h [3]: 1000 µg/mL
- solubility at 24 h [3]: 1000 µg/mL
- solubility at 48 h [3]: 1000 µg/mL
- solubility at 1 h [4]: 8700 µg/mL
- solubility at 2 h [4]: 8800 µg/mL
- solubility at 4 h [4]: 10400 µg/mL
- solubility at 24 h [4]: 6900 µg/mL
- solubility at 48 h [4]: 7500 µg/mL
- solubility at 7 days [4]: 4000 µg/mL
- solubility at 0.5 h [4]: 7600 µg/mL
- solubility at 1 h [5]: 2400 µg/mL
- solubility at 2 h [5]: 2800 µg/mL
- solubility at 4 h [5]: 2500 µg/mL
- solubility at 24 h [5]: 2700 µg/mL
- solubility at 48 h [5]: 2700 µg/mL
- solubility at 0.5 h [5]: 2100 µg/mL
- solubility at 1 h [6]: 1800 µg/mL
- solubility at 2 h [6]: 1800 µg/mL
- solubility at 4 h [6]: 2000 µg/mL
- solubility at 24 h [6]: 1600 µg/mL
- solubility at 48 h [6]: 1500 µg/mL
- solubility at 7 days [6]: 1300 µg/mL
- solubility at 0.5 h [6]: 2100 µg/mL
- solubility at 1 h [7]: 40200 µg/mL
- solubility at 2 h [7]: 40900 µg/mL
- solubility at 4 h [7]: 43000 µg/mL
- solubility at 24 h [7]: 40400 µg/mL
- solubility at 48 h [7]: 39200 µg/mL
- solubility at 7 days [7]: 26900 µg/mL
- solubility at 0.5 h [7]: 31600 µg/mL
- solubility (simulated intestinal fluid (SIF), 25 °C, pH 6.75, fassgf or other biorelevant): 2700 to 2800 µg/mL
- solubility at 4 h [8]: 2800 µg/mL
- solubility at 24 h [8]: 2700 µg/mL
- solubility at 48 h [8]: 2700 µg/mL
- solubility at 4 h (water (pH ˜9)): 1100 µg/mL
- solubility at 24 h (water (pH ˜9)): 1100 µg/mL
- solubility at 48 h (water (pH ˜9)): 1100 µg/mL
SMILES: Cc1cnc(NCC(F)(F)c2ccccc2)c(=O)n1CC(=O)NCCONC(=N)N [compound of formula (I), N-[2-[[(diaminomethylene)amino]oxy]ethyl]-3-[(2,2-difluoro-2-phenylethyl)amino]-6-methyl-2-oxo-1(2H)-pyrazineacetamide]
